From patent US11304957B2, “Substituted quinazolines for inhibiting kinase activity” (NeuPharma, Inc., priority 2013, dated 2022) come the findings set out here.

A value given as a limit tells only on which side of the number the result lay.

What all share (assay type): biochemical
The target in one assay is BTK (Homo sapiens (Human), UniProt Q06187). Description: Z'-LYTE kinase inhibition assay, BTK. The conditions noted are these: read-out: % inhibition BTK; heading: % inhibition BTK; compound at 0.041 μM. The procedure: (§1) Inhibitory activities of compounds against BTK, EGFR and EGFR mutants (EGFR L858R, EGFR T790M, EGFR L858R/T790M), FGFR1, FGFR2, JAK2, JAK3 and KDR were measured by Invitrogen using Z′-LYTE® Method as briefly described in the following.
(§2) Test Compounds are screened in 1% DMSO (final) in the well. For 10 point titrations, 3-fold serial dilutions are conducted from the starting concentration. All ATP Solutions are diluted to a 4× working concentration in Kinase Buffer (50 mM HEPES pH 7.5, 0.01% BRIJ-35, 10 mM MgCl2, 1 mM EGTA). Peptide/Kinase Mixtures are diluted to a 2× working concentration in the appropriate Kinase Buffers as described below.
(v) Peptide/Kinase Mixtures for Measurement of BTK:
The 2×BTK/Tyr 01 mixture is prepared in 50 mM HEPES pH 7.5, 0.01% BRIJ-35, 10 mM MgCl2, 1 mM EGTA.
The mixture is then incubated for another 60-minute at room temperature for development reaction. Finally fluorescence is read by plate reader.
To determine IC50 of a compound against EGFR, EGFR mutant and other kinases, a series of concentrations of the compound were tested for the inhibition. […] The scale utilized in Table 4 is as follows: +++ less than 100 nM, ++ 100-500 nM and + greater than 500 nM.

The target of the next assay is JAK2 (Homo sapiens (Human), UniProt O60674). Description: Z'-LYTE kinase inhibition assay, JAK2. The following applies: read-out: % inhibition JAK2; heading: % inhibition JAK2; compound at 0.041 μM. The procedure: as §1, §2
(v) Peptide/Kinase Mixtures for Measurement of JAK2:
The 2×JAK2/Tyr 06 mixture is prepared in 50 mM HEPES pH 7.5, 0.01% BRIJ-35, 10 mM MgCl2, 1 mM EGTA. The final 10 μL Kinase Reaction consists of 0.06-0.81 ng JAK2 and 2 μM Tyr 06 in 50 mM HEPES pH 7.5, 0.01% BRIJ-35, 10 mM MgCl2, 1 mM EGTA. After the 1 hour Kinase Reaction incubation, 5 μL of a 1:64 dilution of Development Reagent A is added.
Reaction starts by 30-second shaking of mixture consisting of 2.5 μL 4× test compound, 5 μL 2× kinase reaction mixture and 2.5 μL 4×ATP Solution on Bar-coded Corning, low volume NBS, black 384-well plate (Corning Cat. #3676). Then the mixture is incubated for 60-minute at room temperature for the kinase reaction, followed by addition of 5 μL of a 1:1024 dilution of development reagent A and 30-second plate shake. The mixture is then incubated for another 60-minute at room temperature for development reaction. Finally fluorescence is read by plate reader.

The target of a further assay is EGFR (ErbB1) T790M L858R (Homo sapiens (Human), UniProt P00533, L858R/T790M). Kind of assay: Z'-LYTE kinase inhibition assay, EGFR L858R/T790M. The following applies: for inhibition at 0.0137 µM: read-out: % inhibition EGFR L858R/T790M (Compound at 0.0137 μM). The method, then: Inhibitory activities of compounds against BTK, EGFR and EGFR mutants (EGFR L858R, EGFR T790M, EGFR L858R/T790M), FGFR1, FGFR2, JAK2, JAK3 and KDR were measured by Invitrogen using Z'-LYTE® Method as briefly described in the following. Test Compounds are screened in 1% DMSO (final) in the well. For 10 point titrations, 3-fold serial dilutions are conducted from the starting concentration. All ATP Solutions are diluted to a 4× working concentration in Kinase Buffer (50 mM HEPES pH 7.5, 0.01% BRIJ-35, 10 mM MgCl2, 1 mM EGTA). Peptide/Kinase Mixtures are diluted to a 2× working concentration in the appropriate Kinase Buffers as described below. (iv) Peptide/Kinase Mixtures for Measurement of EGFR (ErbB1) T790M L858R: The 2×EGFR (ErbB1) […] mixture is prepared in 50 mM HEPES pH 6.5, 0.01% BRIJ-35, 10 mM MgCl2, 1 mM EGTA, 0.02% NaN3. […] After the 1 hour Kinase Reaction incubation, 5 μL of a 1:64 dilution of Development Reagent B is added. Reaction starts by 30-second shaking of mixture consisting of 2.5 μL 4× test compound, 5 μL 2× kinase reaction mixture and 2.5 μL 4×ATP Solution on Bar-coded Corning, low volume NBS, black 384-well plate (Corning Cat. #3676). Then the mixture is incubated for 60-minute at room temperature for the kinase reaction, followed by addition of 5 μL of a 1:1024 dilution of development reagent A and 30-second plate shake. The mixture is then incubated for another 60-minute at room temperature for development reaction. Finally fluorescence is read by plate reader. To determine IC50 of a compound against EGFR, EGFR mutant and other kinases, a series of concentrations of the compound were tested for the inhibition.
EGFR (ErbB1) T790M L858R, sequence (P00533 25-1210 T790M/L858R): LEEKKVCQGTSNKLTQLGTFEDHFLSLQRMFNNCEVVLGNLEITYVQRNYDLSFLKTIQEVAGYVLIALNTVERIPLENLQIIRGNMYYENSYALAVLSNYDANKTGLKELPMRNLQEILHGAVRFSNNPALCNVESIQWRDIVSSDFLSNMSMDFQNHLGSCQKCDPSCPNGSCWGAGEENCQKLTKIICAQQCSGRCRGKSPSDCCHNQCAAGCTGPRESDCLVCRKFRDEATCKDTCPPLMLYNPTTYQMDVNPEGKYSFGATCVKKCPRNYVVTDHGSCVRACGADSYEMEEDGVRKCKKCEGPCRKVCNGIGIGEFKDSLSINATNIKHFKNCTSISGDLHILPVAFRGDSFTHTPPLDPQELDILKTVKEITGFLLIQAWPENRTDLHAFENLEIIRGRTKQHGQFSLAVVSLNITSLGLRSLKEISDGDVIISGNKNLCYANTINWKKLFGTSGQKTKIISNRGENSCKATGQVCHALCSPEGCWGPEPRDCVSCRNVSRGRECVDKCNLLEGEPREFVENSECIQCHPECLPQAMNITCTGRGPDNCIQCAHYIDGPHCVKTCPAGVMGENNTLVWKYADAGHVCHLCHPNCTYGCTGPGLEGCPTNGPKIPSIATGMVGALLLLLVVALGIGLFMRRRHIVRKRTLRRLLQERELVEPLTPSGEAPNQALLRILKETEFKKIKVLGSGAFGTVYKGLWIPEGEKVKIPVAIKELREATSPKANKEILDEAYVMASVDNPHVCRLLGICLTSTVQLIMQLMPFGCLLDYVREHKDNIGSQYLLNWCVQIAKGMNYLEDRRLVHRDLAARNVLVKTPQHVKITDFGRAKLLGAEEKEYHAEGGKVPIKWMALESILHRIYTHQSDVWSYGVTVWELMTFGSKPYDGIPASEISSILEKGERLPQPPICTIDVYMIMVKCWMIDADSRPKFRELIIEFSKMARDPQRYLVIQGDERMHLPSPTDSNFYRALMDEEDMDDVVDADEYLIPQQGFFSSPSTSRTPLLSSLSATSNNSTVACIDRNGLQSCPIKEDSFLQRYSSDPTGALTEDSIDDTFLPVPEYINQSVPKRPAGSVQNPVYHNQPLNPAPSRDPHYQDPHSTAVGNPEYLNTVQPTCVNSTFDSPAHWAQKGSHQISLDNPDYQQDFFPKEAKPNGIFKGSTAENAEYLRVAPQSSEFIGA

BTK, sequence (Q06187 whole entry): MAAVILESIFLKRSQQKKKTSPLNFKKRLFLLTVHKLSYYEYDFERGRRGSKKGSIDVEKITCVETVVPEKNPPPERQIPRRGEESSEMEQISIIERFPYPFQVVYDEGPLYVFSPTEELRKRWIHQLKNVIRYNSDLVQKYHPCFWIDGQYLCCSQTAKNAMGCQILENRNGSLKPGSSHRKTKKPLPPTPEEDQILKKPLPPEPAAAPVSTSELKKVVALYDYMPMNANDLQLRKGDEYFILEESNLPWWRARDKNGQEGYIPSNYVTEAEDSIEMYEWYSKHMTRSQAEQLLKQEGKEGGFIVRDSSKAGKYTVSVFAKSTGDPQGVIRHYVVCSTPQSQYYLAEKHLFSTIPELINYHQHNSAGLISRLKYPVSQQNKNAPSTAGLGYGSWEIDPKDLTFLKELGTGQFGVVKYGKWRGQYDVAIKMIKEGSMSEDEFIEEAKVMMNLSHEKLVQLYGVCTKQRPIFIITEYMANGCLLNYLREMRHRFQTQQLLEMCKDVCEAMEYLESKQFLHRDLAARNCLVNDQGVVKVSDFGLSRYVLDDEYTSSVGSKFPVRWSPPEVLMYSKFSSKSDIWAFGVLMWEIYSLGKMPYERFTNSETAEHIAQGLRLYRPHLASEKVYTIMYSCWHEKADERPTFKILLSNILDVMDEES
JAK2, sequence (O60674 whole entry): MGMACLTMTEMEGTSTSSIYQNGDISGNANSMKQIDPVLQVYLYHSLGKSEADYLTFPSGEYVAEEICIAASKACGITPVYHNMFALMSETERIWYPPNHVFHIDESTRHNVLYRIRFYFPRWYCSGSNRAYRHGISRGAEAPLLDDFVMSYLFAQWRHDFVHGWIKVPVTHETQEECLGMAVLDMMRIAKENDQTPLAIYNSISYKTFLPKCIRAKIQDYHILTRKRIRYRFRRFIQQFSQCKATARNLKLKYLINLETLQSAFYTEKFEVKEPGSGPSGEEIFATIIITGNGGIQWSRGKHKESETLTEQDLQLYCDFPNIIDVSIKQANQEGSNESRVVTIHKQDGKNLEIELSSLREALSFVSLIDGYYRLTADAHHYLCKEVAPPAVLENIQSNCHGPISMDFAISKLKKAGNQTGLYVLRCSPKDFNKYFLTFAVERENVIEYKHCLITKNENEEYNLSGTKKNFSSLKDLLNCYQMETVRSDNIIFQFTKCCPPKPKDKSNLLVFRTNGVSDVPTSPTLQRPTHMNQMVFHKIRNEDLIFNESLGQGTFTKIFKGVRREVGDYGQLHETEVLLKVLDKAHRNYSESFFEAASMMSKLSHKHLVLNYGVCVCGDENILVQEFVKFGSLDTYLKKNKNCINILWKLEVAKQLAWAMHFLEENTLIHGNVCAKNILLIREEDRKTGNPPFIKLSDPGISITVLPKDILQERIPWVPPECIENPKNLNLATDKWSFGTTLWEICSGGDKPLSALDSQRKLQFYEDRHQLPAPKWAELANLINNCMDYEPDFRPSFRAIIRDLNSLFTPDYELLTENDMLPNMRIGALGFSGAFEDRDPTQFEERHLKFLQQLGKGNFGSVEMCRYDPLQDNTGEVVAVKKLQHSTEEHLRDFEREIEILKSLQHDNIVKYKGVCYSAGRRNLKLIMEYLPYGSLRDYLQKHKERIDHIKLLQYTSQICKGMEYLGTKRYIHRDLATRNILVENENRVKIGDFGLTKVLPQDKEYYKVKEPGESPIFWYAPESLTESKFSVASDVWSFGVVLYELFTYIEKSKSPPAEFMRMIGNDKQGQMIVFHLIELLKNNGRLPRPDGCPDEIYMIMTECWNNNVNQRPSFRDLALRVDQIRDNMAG

`C=CC(=O)Nc1cccc(-c2cccc3cnc(Nc4ccc(N5CCN(C)CC5)cc4)nc23)c1Cl` [Example C054, N-(2-chloro-3-(2-((4-(4-methylpiperazin-1-yl)phenyl)amino)quinazolin-8-yl)phenyl)acrylamide]: the inhibition at 0.041 µM on BTK and on JAK2 was > 50% throughout.

Take `C=CC(=O)Nc1cccc(-c2nccc3c(N)nc(Nc4ccc(N5CCOCC5)cc4)nc23)c1` [Example C005, N-(3-(4-amino-2-((4-morpholinophenyl)amino)pyrido[3,4-d]pyrimidin-8-yl)phenyl)acrylamide]: the values for the inhibition at 0.041 µM at BTK and on JAK2 were > 50% and < 50%, respectively.

For `C=CC(=O)Nc1cccc(-c2cccc3cnc(Nc4ccc(OC5CN(C(C)=O)C5)cc4)nc23)c1` [Example C122, N-(3-(2-((4-((1-acetylazetidin-3-yl)oxy)phenyl)amino)quinazolin-8-yl)phenyl)acrylamide], the inhibition at 0.041 µM at BTK is > 50%.

As to `Clc1ccccc1-c1cccc2cnc(Nc3ccc(N4CCNCC4)cc3)nc12` [Example C026, 8-(2-chlorophenyl)-N-(4-(piperazin-1-yl)phenyl)quinazolin-2-amine], the inhibition at 0.041 µM at BTK is < 50%.

For `C=CC(=O)Nc1cccc(-c2c(C)ccc3cnc(Nc4ccc(N5CCN(C)CC5)cc4)nc23)c1` [Example C034, N-(3-(7-methyl-2-((4-(4-methylpiperazin-1-yl)phenyl)amino)quinazolin-8-yl)phenyl)acrylamide], at EGFR (ErbB1) T790M L858R (read-out: % inhibition EGFR L858R/T790M (Compound at 1 μM)), the inhibition at 1 µM was > 50%.

In the case of `C=CC(=O)Nc1cccc(-c2cccc3cnc(Nc4ccc(O[C@@H]5CCOC5)cc4)nc23)c1` [Example C119, (R)-N-(3-(2-((4-((tetrahydrofuran-3-yl)oxy)phenyl)amino)quinazolin-8-yl)phenyl)acrylamide], the inhibition at 0.041 µM at BTK is > 50%.

With `C=CC(=O)Nc1cccc(-c2cccc3cnc(Nc4ccc(O[C@H]5CCN(C)C5)cc4)nc23)c1` [Example C121, (S)-N-(3-(2-((4-((1-methylpyrrolidin-3-yl)oxy)phenyl)amino)quinazolin-8-yl)phenyl)acrylamide], on BTK, the inhibition at 0.041 µM was > 50%.

With `C=CC(=O)Nc1cccc(-c2cccc3cnc(Nc4ccc(OC5CCN(C)CC5F)cc4)nc23)c1` (stereo not shown) [Example C079, N-(3-(2-((4-((3-fluoro-1-methylpiperidin-4-yl)oxy)phenyl)amino)quinazolin-8-yl)phenyl)acrylamide], on EGFR (ErbB1) T790M L858R, the inhibition at 0.0137 µM is > 50%.

Consider `C=CC(=O)Nc1cccc(-c2cccc3cnc(Nc4ccc(O[C@H]5CCOC5)cc4)nc23)c1` [Example C113, (S)-N-(3-(2-((4-((tetrahydrofuran-3-yl)oxy)phenyl)amino)quinazolin-8-yl)phenyl)acrylamide], for which the inhibition at 0.041 µM on BTK was > 50%.

As for `C=CC(=O)Nc1cccc(-c2cccc3cnc(Nc4ccc(OCCN(C)C)cc4)nc23)c1` [Example C110, N-(3-(2-((4-(2-(dimethylamino)ethoxy)phenyl)amino)quinazolin-8-yl)phenyl)acrylamide], the inhibition at 0.041 µM at BTK is > 50%.

For the molecule `C=CC(=O)Nc1cccc(-c2cccc3cnc(Nc4ccc(NC5CCN(C(C)=O)CC5)cc4)nc23)c1` [Example C120, N-(3-(2-((4-((1-acetylpiperidin-4-yl)amino)phenyl)amino)quinazolin-8-yl)phenyl)acrylamide], the inhibition at 0.041 µM at BTK was > 50%.

`C=CC(=O)Nc1cccc(-c2cccc3cnc(Nc4ccc(N5CCN(C)CC5)nc4)nc23)c1` [Example C041, N-(3-(2-((6-(4-methylpiperazin-1-yl)pyridin-3-yl)amino)quinazolin-8-yl)phenyl)acrylamide]: the inhibition at 0.0137 µM on EGFR (ErbB1) T790M L858R was > 50%.

As for `C=CC(=O)Nc1cccc(-c2cccc3cnc(Nc4ccc(N5CCN(C)CC5)c(C(N)=O)c4)nc23)c1` [Example C085, 5-((8-(3-acrylamidophenyl)quinazolin-2-yl)amino)-2-(4-methylpiperazin-1-yl)benzamide], the inhibition at 0.0137 µM at EGFR (ErbB1) T790M L858R is > 50%.

As for `C=CC(=O)Nc1cccc(-c2cccc3cnc(Nc4ccc(OCCN5CCC5)cc4)nc23)c1` [Example C109, N-(3-(2-((4-(2-(azetidin-1-yl)ethoxy)phenyl)amino)quinazolin-8-yl)phenyl)acrylamide], the inhibition at 0.041 µM at BTK is > 50%.

Turning to `C=CC(=O)Nc1cccc(-c2cccc3cnc(Nc4ccc(NC5CCN(C)CC5)cc4)nc23)c1` [Example C118, N-(3-(2-((4-((1-methylpiperidin-4-yl)amino)phenyl)amino)quinazolin-8-yl)phenyl)acrylamide], at BTK, the inhibition at 0.041 µM is > 50%.

Consider `C=CC(=O)Nc1cccc(-c2cccc3cnc(Nc4ccc(OC5CCN(C)CC5)cc4)nc23)c1` [Example C126, N-(3-(2-((4-((1-methylpiperidin-4-yl)oxy)phenyl)amino)quinazolin-8-yl)phenyl)acrylamide], for which the inhibition at 0.041 µM on BTK was > 50%.

Regarding `Fc1cccc(-c2cccc3cnc(Nc4ccc(N5CCOCC5)cc4)nc23)c1` [Example C009, 8-(3-fluorophenyl)-N-(4-morpholinophenyl)quinazolin-2-amine], the inhibition at 0.041 µM on BTK was < 50%.

Regarding `C=CC(=O)Nc1cccc(-c2cccc3cnc(Nc4ccc(N5CCNC(=O)C5)cc4)nc23)c1` [Example C117, N-(3-(2-((4-(3-oxopiperazin-1-yl)phenyl)amino)quinazolin-8-yl)phenyl)acrylamide], the inhibition at 0.041 µM at BTK was > 50%.

On to `C=CC(=O)Nc1cccc(-c2cccc3cnc(Nc4ccc(NC5CN(C(C)=O)C5)cc4)nc23)c1` [Example C124, N-(3-(2-((4-((1-acetylazetidin-3-yl)amino)phenyl)amino)quinazolin-8-yl)phenyl)acrylamide], for which the inhibition at 0.041 µM at BTK is > 50%.

For `C=CC(=O)Nc1cccc(-c2cccc3cnc(Nc4ccc(OC5CCN(C(C)=O)CC5)cc4)nc23)c1` [Example C125, N-(3-(2-((4-((1-acetylpiperidin-4-yl)oxy)phenyl)amino)quinazolin-8-yl)phenyl)acrylamide], the inhibition at 0.041 µM at BTK is > 50%.

`C=CC(=O)Nc1cccc(-c2cccc3cnc(Nc4ccc(NC5CCN(C)CC5F)cc4)nc23)c1` (stereo not shown) [Example C105, N-(3-(2-((4-((3-fluoro-1-methylpiperidin-4-yl)amino)phenyl)amino)quinazolin-8-yl)phenyl)acrylamide]: the inhibition at 0.0137 µM at EGFR (ErbB1) T790M L858R is > 50%.

As for `C=CC(=O)Nc1cccc(-c2cccc3cnc(Nc4ccc(O[C@@H]5CCN(C)C5)cc4)nc23)c1` [Example C123, (R)-N-(3-(2-((4-((1-methylpyrrolidin-3-yl)oxy)phenyl)amino)quinazolin-8-yl)phenyl)acrylamide], the inhibition at 0.041 µM on BTK was > 50%.

`C=CC(=O)Nc1cccc(-c2cccc3cnc(Nc4ccc(N[C@@H]5CCOC5)cc4)nc23)c1` [Example C115, (R)-N-(3-(2-((4-((tetrahydrofuran-3-yl)amino)phenyl)amino)quinazolin-8-yl)phenyl)acrylamide]: the inhibition at 0.041 µM on BTK was > 50%.
